The nature of data set [1]: Water solubility of the prepared salts. The data set is classed as physicochemical.
Data set [2] can be described thus: Stability of sample solutions in the dark/under light. Format: physicochemical. Here is the method: Determination: An appropriate amount of a salt sample was taken, dissolved with water, and diluted to prepare a test solution with a concentration of about 10 ppm. An acidic reference substance (extremely-insoluble in water) was prepared with a 30% to 50% ethanol aqueous solution into a test solution with a concentration of about 10 ppm.
Each test solution was scanned by an ultraviolet spectrophotometer (at 0 h) for absorbance in a range of 200 nm to 800 nm immediately after being prepared. Then a test solution of each sample was divided into two parts. One part was placed at room temperature of 25° C. in the dark, and the other part was placed under light with a light intensity of 30,000 lux. At 1 h, 2 h, and 3 h, a solution sample was collected and scanned for absorbance respectively.
An absorbance value of a maximum absorption peak at 0 h (starting) of each test solution was set as a relative content of 100%, and a ratio of an absorbance value at each time point to the absorbance value at 0 h was calculated to determine a relative content, %.

In a further data set the target is chlorophyllase. The experiment in a line: In vitro chlorophyllase-inhibiting activity test. Format: biochemical, mung bean. Here is the method: A chlorophyllase inhibition rate of a salt sample solution at each concentration was determined, and an IC50 value for a chlorophyllase inhibition activity of a salt sample was calculated.
The nature of data set [3]: Dilution and pH determination for sample solutions. The data set is classed as physicochemical. Here is the method:
Method: 0.2500 g of a sample was accurately weighed and added to a 25 mL volumetric flask, dissolved with purified water, and diluted to a specified scale to prepare a 1.00% (10,000.0 ppm) initial solution. The initial solution was diluted with purified water in different ratios to prepare a series of solutions with a concentration of 1,000.0 ppm to 0.1 ppm. A pH value of each sample was determined three times.

The subject of another data set is wheat. The experiment in a line: Germination of wheat and growth of seedlings. Format: in vivo, wheat (Huaimai 35). Conditions: for Root length / Root number / Root weight / Seedling height / Seedling weight: wheat seedlings. As to the method:
Method: 3 replicates were set for each treatment. 50 full seeds with a consistent size were selected each time for each sample, disinfected with sodium hypochlorite for 5 min, rinsed with clear water, and placed in a plastic box filled with 100 g of a sand. 25 mL of a prepared sample solution was poured into the plastic box, and the seeds were arranged regularly. The plastic box was covered with a lid, and then incubated in a 25° C. incubator. The germination was determined when a length of a sprout of a wheat seed exceeded a half of a diameter (long axis) of the wheat seed (determination criterion). According to the growth of wheat, the germ exposure of seeds and the number of germinated seeds were recorded every day. On day 6, 10 wheat seedlings were randomly selected, and a root length, a plant height, and a root number were determined. On day 7, a root weight and an aboveground part weight were determined. All index data was produced based on 3 replicates.

The mark [4] stands for this setting: under light 30,000 lux, 1 h, salts in water, acidic reference in 30% to 50% ethanol.
Where [5] appears, read: under light 30,000 lux, 2 h, salts in water, acidic reference in 30% to 50% ethanol.
The mark [6] stands for this setting: under light 30,000 lux, 3 h, salts in water, acidic reference in 30% to 50% ethanol.
The mark [7] stands for this setting: substrate chlorophyll 120 ppm, sample 0.3 ppm to 30.0 ppm.

Read-outs that look alike come from different tables or passages of the source.

Take zinc chlorin [Example 60]: the solubility in water entry in data set [1] was “slightly soluble”. The Relative content in data set [2] (setting [4]) is listed as 55.66%; in data set [2] (setting [5]), 50.60%; in data set [2] (setting [6]), 45.30%. In addition, the “IC50 for chlorophyllase inhibition activity” value at chlorophyllase (setting [7]) came to 6.37 ppm.
The matching figures for copper zinc chlorophyllin [Example 42]: “slightly soluble”, 88.43%, 93.28%, 70.90% and 17.76 ppm.
On the same counts, the results for copper iron chlorin [Example 29] are “slightly soluble”, 78.52%, 71.02%, 64.29% and 4.92 ppm.
“calcium iron chlorophyllin [Iron chlorophyllin Ca^2+]”: the values for the Relative content in data set [2] (setting [4]), in data set [2] (setting [5]) and in data set [2] (setting [6]) were 81.00%, 74.21% and 63.35%, respectively. Besides, the “IC50 for chlorophyllase inhibition activity” value against chlorophyllase (setting [7]) is recorded as 5.38 ppm.
Compound `C=CC1=C(C)c2cc3[n-]c(cc4nc(cc5[n-]c(cc1n2)c(C)c5C=C)C(C)=C4CCC(=O)[O-])c(CCC(=O)[O-])c3C.[Cl-].[Fe+3].[Na+].[Na+]` [Example 11, sodium chlorhematin] had a pH in data set [3] (20 ppm solution in water (Comparative Test 2)) of 7.5. Moreover, the solubility in water result in data set [1] is reported as “easily soluble”. For the same compound, the results for the Relative content in data set [2] (setting [4]), in data set [2] (setting [5]) and in data set [2] (setting [6]) were 74.11%, 69.68% and 67.73%, respectively.
As to “magnesium copper chlorophyllin [Example 45]”, the figures for the Relative content in data set [2] (setting [4]), in data set [2] (setting [5]) and in data set [2] (setting [6]) were 74.46%, 68.03% and 66.86%, respectively. On chlorophyllase (setting [7]), the “IC50 for chlorophyllase inhibition activity” value amounted to 11.87 ppm.
Take “ammonium copper chlorophyllin [Example 44]”: the “IC50 for chlorophyllase inhibition activity” value against chlorophyllase is recorded as 13.68 ppm.
Regarding “sodium zinc chlorophyllin [Zinc chlorophyllin Na^+]”, the Relative content in data set [2] (setting [4]) was determined as 51.90%; in data set [2] (setting [5]), 42.51%; in data set [2] (setting [6]), 37.81%. Further, the “IC50 for chlorophyllase inhibition activity” value at chlorophyllase (setting [7]) is reported as 15.91 ppm.
On to ammonium chlorin [Example 54], for which, at chlorophyllase (setting [7]), the “IC50 for chlorophyllase inhibition activity” value is on record as 6.05 ppm.
ammonium iron chlorin [Example 22]: the “IC50 for chlorophyllase inhibition activity” value against chlorophyllase (setting [7]) came to 5.58 ppm.
With “manganese zinc chlorophyllin [Example 40]”, the “IC50 for chlorophyllase inhibition activity” value against chlorophyllase was 18.10 ppm.
As to “magnesium zinc chlorophyllin [Example 36]”, the Relative content in data set [2] (setting [4]) is on record as 53.53%; in data set [2] (setting [5]), 45.74%; in data set [2] (setting [6]), 39.42%. Also, at chlorophyllase (setting [7]), the “IC50 for chlorophyllase inhibition activity” value is 16.37 ppm.
Regarding “zinc iron chlorophyllin [Iron chlorophyllin Zn^2+]”, the Relative content was 69.34% in data set [2] (setting [4]), 63.04% in data set [2] (setting [5]) and 60.46% in data set [2] (setting [6]). Moreover, the “IC50 for chlorophyllase inhibition activity” value against chlorophyllase (setting [7]) is 5.16 ppm.
For “calcium copper chlorophyllin [Example 46]”, the “IC50 for chlorophyllase inhibition activity” value against chlorophyllase (setting [7]) turned out to be 13.49 ppm.
Consider calcium chlorin [Example 56], for which the “IC50 for chlorophyllase inhibition activity” value on chlorophyllase (setting [7]) is given as 6.43 ppm.
Take magnesium iron chlorin [Example 23]: the Relative content in data set [2] (setting [4]) was 74.25%; in data set [2] (setting [5]), 66.34%; in data set [2] (setting [6]) it was 62.11%. For the same compound, the “IC50 for chlorophyllase inhibition activity” value against chlorophyllase (setting [7]) was 5.06 ppm.
On the same counts, the results for magnesium chlorin [Example 55] are 43.47%, 35.26%, 30.41% and 6.22 ppm.
“manganese iron chlorophyllin [Iron chlorophyllin Mn^2+]”: the values for the Relative content in data set [2] (setting [4]), in data set [2] (setting [5]) and in data set [2] (setting [6]) were 70.13%, 61.00% and 58.68%, respectively. On chlorophyllase (setting [7]), the “IC50 for chlorophyllase inhibition activity” value stood at 5.55 ppm.
On the same counts, the results for “sodium copper chlorophyllin [Copper chlorophyllin Na^+]” are 72.50%, 67.03%, 66.30% and 13.72 ppm.
Take calcium iron chlorin [Example 24]: the “IC50 for chlorophyllase inhibition activity” value against chlorophyllase (setting [7]) amounted to 5.11 ppm.
Take “potassium zinc chlorophyllin [Zinc chlorophyllin K^+]”: the Relative content in data set [2] (setting [4]) is given as 52.48%; in data set [2] (setting [5]), 46.08%; in data set [2] (setting [6]) it was 41.51%. The “IC50 for chlorophyllase inhibition activity” value against chlorophyllase (setting [7]) stood at 15.55 ppm.
`C=CC1=C(C)c2cc3[n-]c(cc4nc(cc5[n-]c(cc1n2)c(C)c5C=C)C(C)=C4CCC(=O)[O-])c(CCC(=O)[O-])c3C.[Cl-].[Fe+3].[Mg+2]` [Example 13, magnesium chlorhematin]: the pH result is “(6.92)” in data set [3] (0.1 ppm in purified water); “(7.27)” in data set [3] (1.0 ppm in purified water); “(7.63)” in data set [3] (10.0 ppm in purified water); “(7.77)” in data set [3] (20.0 ppm in purified water); “(7.87)” in data set [3] (30.0 ppm in purified water); “(8.01)” in data set [3] (100.0 ppm in purified water). Also, the solubility in water result in data set [1] was “soluble”. In addition, the Relative content in data set [2] (in the dark, 25° C., 0 h) was determined as 100.00%; in data set [2] (in the dark, 25° C., 1 h) it was 100.10%; in data set [2] (in the dark, 25° C., 2 h) it was 99.76%; in data set [2] (in the dark, 25° C., 3 h), 99.38%; in data set [2] (under light 30,000 lux, 0 h), 100.00%; in data set [2] (setting [4]), 82.11%. Moreover, the Relative content in data set [2] (setting [5]) stood at 81.84%; in data set [2] (setting [6]), 75.61%.
For the compound potassium protoporphyrin [Example 1], in data set [1], the solubility in water result is on record as “easily soluble”. The Relative content in data set [2] (setting [4]) was 65.90%. The Relative content in data set [2] (setting [5]) stood at 56.97%. Moreover, in data set [2] (setting [6]), the Relative content is on record as 58.17%. In the data set on wheat (0.0025 ppm), the “Germination rate of wheat” value turned out to be 94.7%, the Root length is on record as 9.63 cm, the Root number is recorded as 5.4 and the Root weight is given as 0.1230 g. Moreover, in the data set with wheat (0.0025 ppm), the Seedling height worked out at 8.95 cm and the Seedling weight is 0.241 g. In the data set with wheat (0.0250 ppm), the “Germination rate of wheat” value is recorded as 95.3%, the Root length came out at 10.17 cm, the Root number is recorded as 5.2 and the Root weight came out at 0.0976 g. In the data set on wheat (0.0250 ppm), this compound registered a Seedling height of 9.48 cm and a Seedling weight of 0.242 g. In addition, in the data set on wheat (0.2500 ppm), the “Germination rate of wheat” value was 90.7%, the Root length came to 8.68 cm, the Root number was 5.3 and the Root weight is reported as 0.1134 g. For the same compound, in the data set on wheat (0.2500 ppm), the Seedling height was determined as 7.64 cm and the Seedling weight turned out to be 0.228 g.
Regarding “ammonium iron chlorophyllin [Example 31]”, the “IC50 for chlorophyllase inhibition activity” value at chlorophyllase (setting [7]) was 5.43 ppm.
With calcium zinc chlorophyllin [Example 37], the “IC50 for chlorophyllase inhibition activity” value on chlorophyllase was found to be 17.78 ppm.
As for `C=CC1=C(C)c2cc3[n-]c(cc4nc(cc5[n-]c(cc1n2)c(C)c5C=C)C(C)=C4CCC(=O)O)c(CCC(=O)O)c3C.[Zn+2]` [Example 8, zinc protoporphyrin], in data set [1], the solubility in water entry is reported as “slightly soluble”. In addition, the Relative content stood at 90.95% in data set [2] (setting [4]), 89.52% in data set [2] (setting [5]) and 86.51% in data set [2] (setting [6]).
“ammonium zinc chlorophyllin [Example 35]”: the “IC50 for chlorophyllase inhibition activity” value against chlorophyllase (setting [7]) is 18.06 ppm.

Values taken from patent US20260123631A1, “NATURAL PORPHIN SALT AND USE THEREOF AS PLANT GROWTH REGULATOR AND PLANT IMMUNITY INDUCER” (NANJING BOSTEC BIOLOGICAL ENGINEERING CO., LTD, priority 2022, published 2026).
